Reference: ChEMBL document CHEMBL1122086, “Comparison of the inhibition of Escherichia coli and Lactobacillus casei dihydrofolate reductase by 2,4-diamino-5-(substituted-benzyl)pyrimidines: quantitative structure-activity relationships, X-ray crystallography, and computer graphics in structure-activity analysis” (J Med Chem, 1982)

Key:
[1] = target: T1, Dihydrofolate reductase (Escherichia coli) (UniProt P0ABQ4)
T1 sequence (whole entry): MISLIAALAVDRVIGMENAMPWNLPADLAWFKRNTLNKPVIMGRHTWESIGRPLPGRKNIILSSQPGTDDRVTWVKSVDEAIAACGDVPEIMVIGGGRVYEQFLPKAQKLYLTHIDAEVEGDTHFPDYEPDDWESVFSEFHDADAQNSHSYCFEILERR
Description: Inhibitory activity against dihydrofolate reductase (DHFR) from Escherichia coli (expressed as log 1/Kiapp)

[2] = target: Dihydrofolate reductase (Lactobacillus casei) (UniProt P00381); conditions: Lacticaseibacillus casei
Chain of Dihydrofolate reductase (Lactobacillus casei) (P00381 whole entry): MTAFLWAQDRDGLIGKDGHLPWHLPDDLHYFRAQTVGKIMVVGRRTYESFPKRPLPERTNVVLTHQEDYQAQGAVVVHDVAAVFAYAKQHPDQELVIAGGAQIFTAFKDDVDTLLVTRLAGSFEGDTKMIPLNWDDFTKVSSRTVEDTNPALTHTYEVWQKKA
Description: Inhibitory activity against dihydrofolate reductase (DHFR) from Lactobacillus casei (expressed as log 1/Kiapp)

Log 1/Ki app [1]	Log 1/Ki app [2]	Structure (SMILES)
7.69	7.3	COc1ccc(Cc2cnc(N)nc2N)cc1C(F)(F)F
6.97	6	CC(=O)Nc1ccc(Cc2cnc(N)nc2N)cc1[N+](=O)[O-]
	6.16	Nc1ncc(Cc2cccc(C(F)(F)F)c2)c(N)n1
	6.51	COCCOc1ccc(Cc2cnc(N)nc2N)cc1OCCOC
	5.67	Nc1ncc(Cc2cccc(CO)c2)c(N)n1
	6.92	COc1ccc(Cc2cnc(N)nc2N)cc1OC
	6.05	COCCOc1ccc(Cc2cnc(N)nc2N)cc1
	5.67	Nc1ncc(Cc2ccc(F)cc2)c(N)n1
	5.47	Nc1ccc(Cc2cnc(N)nc2N)cc1
	6.26	COCCOc1c(OC)cc(Cc2cnc(N)nc2N)cc1OC
	5.78	Cc1cccc(Cc2cnc(N)nc2N)c1
6.57	6.3	Nc1ncc(Cc2ccc(OC(F)(F)F)cc2)c(N)n1
	5.73	Nc1ncc(Cc2cc(CO)cc(CO)c2)c(N)n1
	5.36	CCCCCCCOc1ccc(Cc2cnc(N)nc2N)cc1
	5.96	NC(=O)COc1cccc(Cc2cnc(N)nc2N)c1
	6.12	COCCOc1cccc(Cc2cnc(N)nc2N)c1
	5.73	CCCCCCOc1ccc(Cc2cnc(N)nc2N)cc1
	5.64	COCc1cccc(Cc2cnc(N)nc2N)c1

Log 1/Ki app [1]	Log 1/Ki app [2]	Structure (SMILES)
6.92	5.92	CS(=O)(=O)Oc1cccc(Cc2cnc(N)nc2N)c1
	5.82	Nc1ncc(Cc2cccc(O)c2)c(N)n1
	5.2	Nc1ncc(Cc2ccccc2)c(N)n1
	6.05	CC(=O)Nc1ccc(Cc2cnc(N)nc2N)cc1
	3.38	Nc1ncc(Cc2cc(O)cc(O)c2)c(N)n1
	6.17	CN(C)c1ccc(Cc2cnc(N)nc2N)cc1
	6.67	Nc1ncc(Cc2cccc(I)c2)c(N)n1
	5.84	Nc1ncc(Cc2ccc(O)c(O)c2)c(N)n1
	6.21	Nc1ncc(Cc2ccc(Br)cc2)c(N)n1
	5.49	CCCCOCc1cccc(Cc2cnc(N)nc2N)c1
	5.9	Nc1ncc(Cc2cccc(Cl)c2)c(N)n1
6.2	6	Nc1ncc(Cc2ccc([N+](=O)[O-])cc2)c(N)n1
	6.37	CCCCOc1ccc(Cc2cnc(N)nc2N)cc1
	6.19	Nc1ncc(Cc2ccc(Cl)cc2)c(N)n1
	6.23	Nc1ncc(Cc2cccc(Br)c2)c(N)n1
	5.83	Cc1ccc(Cc2cnc(N)nc2N)cc1
	5.38	Nc1ncc(Cc2cccc(F)c2)c(N)n1
